Assay [1] concerns the target T1, 5-hydroxytryptamine (HT1A) receptor (Bos taurus, UniProt F6Q2H9).
T1 construct: from tissue; host or cells: bovine brain homogenate
T1 sequence (F6Q2H9 1-422): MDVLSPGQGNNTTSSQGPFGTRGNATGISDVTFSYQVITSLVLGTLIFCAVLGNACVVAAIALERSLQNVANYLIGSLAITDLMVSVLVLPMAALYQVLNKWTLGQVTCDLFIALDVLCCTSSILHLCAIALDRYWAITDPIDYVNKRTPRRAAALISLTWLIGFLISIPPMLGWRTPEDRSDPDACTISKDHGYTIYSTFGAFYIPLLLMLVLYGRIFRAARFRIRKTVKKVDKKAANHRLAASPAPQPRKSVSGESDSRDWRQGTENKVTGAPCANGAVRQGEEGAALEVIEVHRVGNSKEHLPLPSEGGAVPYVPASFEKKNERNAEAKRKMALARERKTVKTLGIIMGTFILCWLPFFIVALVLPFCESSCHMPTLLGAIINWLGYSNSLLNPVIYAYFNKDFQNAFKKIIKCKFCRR
As to the kind of experiment: Inhibition of 3H-8-OH-DPAT binding in a bovine brain homogenate (5HT1A binding).
Description: Binding: Inhibition of 3H-8-OH-DPAT binding in a bovine brain homogenate. Potency is given as nanomole (nM) dose required to inhibit 50% of DPAT binding (IC50). This test measures ability to bind to 5-hydroxytryptamine (HT1A ) receptor.

The nature of assay [2]: Hypothermia in mice after subcutaneous injection. In kind it is in vivo. Conditions: 20 min, dose required to depress temperature (2° C.) in two of four mice, Spearman-Karber; for ED50: Mus musculus, sc.
Protocol: Hypothermia: Starting with a dose of 30 mg/kg, four mice are injected subcutaneously with test compound. Twenty minutes later, the number of animals whose body temperature has decreased by 2° C. or more are counted. […] The time for last statistically significant drug affect on mean body temperature is indicated in minutes. […] Potency is given as mg/kg ED50 (dose required to depress temperature in two of four mice) as measured by Spearman-Karber statistics.
Another assay has as its target dopamine D2 receptors (Rattus norvegicus, UniProt P61169). Nature of the assay: biochemical. In kind it is binding. From the text: For Dopamine (D2): Inhibition of 3H-raclopride binding in rat striata homogenate. […] This test measures the ability to bind to dopamine D2 receptors.
Where [3] appears, read: 5HT1A Binding IC50, 3H-8-OH-DPAT.
[4] abbreviates: read-out: Hypothermia ED50, mice, subcutaneous.
Where [5] appears, read: 3H-raclopride, rat striata homogenate, read-out: Dopamine D2-Receptor Binding IC50.
Setting [6] is: 3H-8-OH-DPAT, read-out: 5HT1A Binding IC50.
[7] abbreviates: mice, subcutaneous, read-out: Hypothermia ED50.

Where a name gives a salt, the structure may show the parent alone. Read-outs that look alike come from different tables or passages of the source.

dopamine D2 receptors, sequence (P61169 whole entry): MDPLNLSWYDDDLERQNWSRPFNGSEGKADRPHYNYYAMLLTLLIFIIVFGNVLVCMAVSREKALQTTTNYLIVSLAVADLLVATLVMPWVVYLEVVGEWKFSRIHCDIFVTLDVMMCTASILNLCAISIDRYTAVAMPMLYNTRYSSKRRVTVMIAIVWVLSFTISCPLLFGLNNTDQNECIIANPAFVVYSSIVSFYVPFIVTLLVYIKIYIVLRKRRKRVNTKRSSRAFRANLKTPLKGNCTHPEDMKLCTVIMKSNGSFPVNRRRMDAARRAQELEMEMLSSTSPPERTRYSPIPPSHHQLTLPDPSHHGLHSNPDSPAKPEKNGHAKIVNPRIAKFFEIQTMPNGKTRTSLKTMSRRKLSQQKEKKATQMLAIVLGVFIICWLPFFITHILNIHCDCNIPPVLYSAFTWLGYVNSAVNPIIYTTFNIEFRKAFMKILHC

By IC50 is commonly meant the point on the concentration scale where inhibition reaches its midpoint. As usually defined, the ED50 is the midpoint of the dose-response relation. In assay [1] (setting [3]), `COC(=O)c1cc2c3c(ccc2[nH]1)OCC(CN1CCC2(CC1)C(=O)NCN2c1ccccc1)O3` (stereo not shown) [XIa, 2,3-dihydro-2-((4-oxo-1-phenyl-1,3,8-triazaspiro(4.5)-dec-8-yl)methyl)-7H-1,4-dioxino(2,3-e)indol-8-methyl ester] came in with an IC50 of 0.47 nM. Besides, in assay [2] (setting [4]), the ED50 worked out at 30 mg/kg.
The compound `O=C(O)c1cc2c3c(ccc2[nH]1)OCC(CN1CCC2(CC1)C(=O)NCN2c1ccccc1)O3` (stereo not shown) [XIb] had an IC50 in assay [1] (setting [3]) of 36.3 nM. Also, the ED50 in assay [2] (setting [4]) was found to be 17.3 mg/kg.
Consider `NC(=O)c1cc2c3c(ccc2[nH]1)OCC(CN1CCC2(CC1)C(=O)NCN2c1ccccc1)O3` (stereo not shown) [XIc, 7H-1,4-Dioxino(2,3-e)indole-8-carboxamide, 2,3-dihydro-2-((4-oxo-1-phenyl-1,3,8-triazaspiro(4.5)dec-8-yl)methyl)-], for which the IC50 in assay [1] (setting [3]) was found to be 0.29 nM.
For the compound `N#Cc1cc2c3c(ccc2[nH]1)OCC(CN1CCC2(CC1)C(=O)NCN2c1ccccc1)O3` (stereo not shown) [XId, 7H-1,4-Dioxino(2,3-e)indole-8-carbonitrile, 2,3-dihydro-2-((4-oxo-1-phenyl-1,3,8-triazaspiro(4.5)dec-8-yl)methyl)-], the IC50 in assay [1] (setting [3]) is 0.17 nM; against dopamine D2 receptors it was 1.53 nM. Besides, the ED50 in assay [2] (setting [4]) came to 0.01 mg/kg.
`CCCCOC(=O)c1cc2c3c(ccc2[nH]1)OCC(CN1CCC2(CC1)C(=O)NCN2c1ccccc1)O3` (stereo not shown) [XIe, 7H-1,4-Dioxino(2,3-e)indole-8-carboxylic acid, 2,3-dihydro-2-((4-oxo-1-phenyl-1,3,8-triazaspiro(4.5)dec-8-yl)methyl)-, butyl ester] gave an IC50 in assay [1] (setting [3]) of 13.5 nM.
On to `O=C(OCc1ccccc1)c1cc2c3c(ccc2[nH]1)OCC(CN1CCC2(CC1)C(=O)NCN2c1ccccc1)O3` (stereo not shown) [XIf, 7H-1,4-Dioxino(2,3-e)indole-8-carboxylic acid, 2,3-dihydro-2-((4-oxo-1-phenyl-1,3,8-triazaspiro(4.5)dec-8-yl)methyl)-, phenylmethyl ester], for which the IC50 in assay [1] (setting [3]) came out at 8.4 nM; at dopamine D2 receptors (setting [5]), 190 nM. In addition, the ED50 in assay [2] (setting [4]) amounted to 17.3 mg/kg.
As for `COC(=O)c1cc2c3c(ccc2[nH]1)OCC(CN1CCC(n2c(=O)[nH]c4ccccc42)CC1)O3` (stereo not shown) [XIg, 7H-1,4-Dioxino(2,3-e)indole-8-carboxylic acid, 2-((4-(2,3-dihydro-2-oxo-1H-benzimidazol-1-yl)-1-piperidinyl)methyl)-2,3-dihydro-, methyl ester, monohydrochloride], the IC50 in assay [1] (setting [3]) was found to be 3.7 nM.
As to `CCOC(=O)C1CCN(CC2COc3ccc4[nH]c(C(=O)OC)cc4c3O2)CC1` (stereo not shown) [XIh, 7H-1,4-Dioxino(2,3-e)indole-8-carboxylic acid, 2-((4-(ethoxycarbonyl-1-piperidinyl)methyl)-2,3-dihydro-, methyl ester, monohydrochloride], the IC50 in assay [1] (setting [6]) was 9.6 nM; on dopamine D2 receptors (setting [5]), 147 nM. Moreover, in assay [2] (setting [7]), the ED50 is greater than 30 mg/kg.
In turn, `COC(=O)c1cc2c3c(ccc2[nH]1)OCC(CN1CCC(Nc2ccccc2)(C(N)=O)CC1)O3` (stereo not shown) [XIi, 7H-1,4-Dioxino(2,3-e)indole-8-carboxylic acid, 2-((4(aminocarbonyl)-4-(phenylamino)-1-piperidinyl)methyl)-2,3-dihydro-, methyl ester] had an IC50 in assay [1] (setting [3]) of 79.3 nM.
As for `COC(=O)c1cc2c3c(ccc2[nH]1)OCC(CNCCCc1ccccc1)O3` (stereo not shown) [XIj, 7H-1,4-Dioxino(2,3-e)indole-8-carboxylic acid, 2,3-dihydro-2-((3-phenylpropyl)amino)methyl)-, methyl ester, monohydrochloride], the values for the IC50 (in assay [1] (setting [6]); at dopamine D2 receptors (setting [5])) were 4 nM and 54.6 nM, respectively. Also, the ED50 in assay [2] (setting [7]) stood at 1.3 mg/kg.
For `Cl.O=C(NCCCc1ccccc1)c1cc2c3c(ccc2[nH]1)OCC(CNCCCc1ccccc1)O3` (stereo not shown) [XIk, 7H-1,4-Dioxino(2,3-e)indole-8-carboxamide, 2,3-dihydro-N-(3-phenylpropyl)-2-(((3-phenylpropyl)amino)methyl)-, monohydrochloride], in that order: 26 nM, 350 nM and greater than 30 mg/kg.
The compound `O=C1NCN(c2ccccc2)C12CCN(CC1COc3ccc4[nH]c(CO)cc4c3O1)CC2` (stereo not shown) [XIl, 1,3,8-Triazaspiro(4.5)decan-4-one, 8-((2,3-dihydro-8-(hydroxymethyl)-7H-1,4-dioxino(2,3-e)indol-2-yl)methyl)-1-phenyl-] returned an IC50 in assay [1] (setting [3]) of 2.3 nM.
Take `O=C1NCN(c2ccccc2)C12CCN(CC1COc3ccc4[nH]ccc4c3O1)CC2` (stereo not shown) [XIm, 1,3,8-Triazaspiro(4.5)decan-4-one, 8-((2,3-dihydro-7H-1,4-dioxino(2,3-e)indol-2-yl)methyl)-1-phenyl]: the IC50 in assay [1] (setting [3]) worked out at 1 nM; at dopamine D2 receptors, 0.13 nM.
Turning to `C=CCn1c(C(=O)OC)cc2c3c(ccc21)OCC(CN1CCC2(CC1)C(=O)NCN2c1ccccc1)O3` (stereo not shown) [XIn, 7H-1,4-Dioxino(2,3-e)indole-8-carboxylic acid, 2,3-dihydro-2-((4-oxo-1-phenyl-1,3,8-triazaspiro(4.5)dec-8-yl)methyl)-7-(2-propenyl)-, methyl ester], in assay [1] (setting [3]), the IC50 came out at 268 nM.
As to `C=CCN1CN(c2ccccc2)C2(CCN(CC3COc4ccc5c(cc(C(=O)OC)n5CC=C)c4O3)CC2)C1=O` (stereo not shown) [XIo, 7H-1,4-Dioxino(2,3-e)indole-8-carboxylic acid, 2,3-dihydro-2-((4-oxo-1-phenyl-3-(2-propenyl)-1,3,8-triazaspiro(4.5)dec-8-yl)methyl)-7-(2-propenyl)-, methyl ester], the IC50 in assay [1] (setting [3]) turned out to be 280 nM; at dopamine D2 receptors, 97.3 nM.
On to `C=CCN1CN(c2ccccc2)C2(CCN(CC3COc4ccc5[nH]c(C(=O)OC)cc5c4O3)CC2)C1=O` (stereo not shown) [XIp, 7H-1,4-Dioxino(2,3-e)indole-8-carboxylic acid, 2,3-dihydro-2-((4-oxo-1-phenyl-3-(2-propenyl)-1,3,8-triazaspiro(4.5)dec-8-yl)methyl)-, methyl ester], for which, in assay [1] (setting [3]), the IC50 came out at 11 nM.
`COC(=O)C1Cc2c(ccc3c2OC(CN2CCC4(CC2)C(=O)NCN4c2ccccc2)CO3)N1` (stereo not shown) [a', 7H-1,4-Dioxino(2,3-e)indole-8-carboxylic acid 2,3,8,9-tetrahydro-2-((4-oxo-1-phenyl-1,3,8-triazaspiro(4.5)dec-8-yl)methyl)-, methyl ester]: the ED50 in assay [2] (setting [4]) worked out at 17.3 mg/kg.
Consider `O=C(O)c1cc2c3c(ccc2[nH]1)OCC(CN1CCC2(CC1)C(=O)NCN2c1ccccc1)O3` (stereo not shown) [b'], for which the IC50 turned out to be 24.7 nM in assay [1] (setting [3]) and 52.2 nM at dopamine D2 receptors. In addition, the “Hypothermia ED50” value in assay [2] (mice, subcutaneous) was determined as 30.0 mg/kg.
